Measurements taken from paper PMC9131871, “Impact of Micropolymorphism Outside the Peptide Binding Groove in the Clinically Relevant Allele HLA-C*14 on T Cell Responses in HIV-1 Infection” (Journal of Virology, 2022).

Columns and labels:
[1] = test system: NL4-3-infected .221-C1402 and .221-C1403 cells; test: ICS assay, peptide-specific bulk T cells against NL4-3-infected .221 cells; format: cell-based, human; conditions: IFN-γ ICS, p24+ cells 52% and 54%, not by uninfected .221 cells, triplicate assays
Protocol: We next investigated whether T cells specific for these peptides could recognize NL4-3-infected .221-C1402 or .221-C1403 cells.
FIG 5 Recognition of NL4-3-infected .221-CD4 cells by peptide-specific CD8^+ T cells. The response of bulk T cells specific for 6 peptides to NL4-3-infected .221-C1402 cells, NL4-3-infected .221-C1403 cells, NL4-3-infected 721.221 cells, uninfected .221-C1402 cells, and uninfected .221-C1403 cells was analyzed by ICS assay. The frequencies of p24^+ cells were as follows: NL4-3-infected .221-C1402 cells, 52%; NL4-3-infected .221-C1403 cells, 54%. The results are means and SDs from triplicate assays.
(§1) PBMCs from HIV-1-infected individuals were stimulated with 1 μM concentrations of the corresponding peptides and then cultured for 2 weeks in RPMI 1640 medium (Thermo Fisher) containing 10% FCS, 20 ng/mL of human recombinant interleukin 2 (rIL-2) (ProSpec), 1× minimal essential medium (MEM) nonessential amino acid solution (Gibco), and 1 mM sodium pyruvate solution (Gibco). Following T cell expansion, .221-C1402 cells or .221-C1403 cells prepulsed with each HIV-1 peptide or .221-C1402 cells or .221-C1403 cells infected with HIV-1 NL4-3 were added to a 96-well plate together with bulk-cultured T cells, and the cells were incubated for 4 h at 37°C with brefeldin A ([…]). The cells were then stained with Pacific blue (PB)-labeled anti-CD3 MAb (BioLegend), FITC-labeled anti-CD19 MAb (BioLegend), allophycocyanin (APC)-labeled anti-CD8 MAb (BioLegend), and a LIVE/DEAD fixable near-infrared (IR) dead-cell staining kit (Invitrogen) and subsequently fixed with 4% paraformaldehyde and incubated in permeabilization buffer (0.1% saponin–5% FBS–PBS). Thereafter, the cells were stained with phycoerythrin (PE)-labeled anti-IFN-γ MAb (BioLegend). Staining data were acquired on a FACSCanto II instrument (BD Biosciences) and analyzed using FlowJo 10.7.1 software.

[2] = test system: .221-C1402 / .221-C1403 cells pulsed with peptide; test: ICS assay, peptide-specific bulk T cells against peptide-pulsed .221 cells; format: cell-based, human; conditions: IFN-γ ICS, 1 μM peptide (autologous allele) or 0.01 to 10 nM (cross-recognition), triplicate assays
Protocol: To confirm the HLA-C*14-restriction of the T cell responses to the 6 NL4-3-derived peptides, we expanded T cells specific for these peptides by stimulating peripheral blood mononuclear cells (PBMCs) from responders with each peptide (HLA-C*14:02^+ responders for Gag AM9, Pol KM9, and Nef AL9 and HLA-C*14:03^+ responders for Gag LY9, Nef IF8, and Nef YT9). The cultured T cells were then tested for their ability to recognize the peptides presented on 721.221 cells expressing HLA-C*14:02 (.221-C1402 cells) or HLA-C*14:03 (.221-C1403 cells) and 721.221 cells by intracellular cytokine staining (ICS) assay. Both cell lines expressed similarly high levels of HLA-C*14, although the surface expression level of HLA-C*14 on the HLA-C*14:03-transfected line was higher than that on the HLA-C*14:02 line (the ratio of relative expression of HLA-C*14:03 to that of HLA-C*14:02 was approximately 1.3:1) (Fig. 4A). […] We further analyzed cross-recognition of .221-C1402 and .221-C1403 cells prepulsed with peptides at a range of different concentrations by T cells from HLA-C*14:02^+ and HLA-C*14:03^+ individuals.
FIG 4 HLA-C*14:02- and HLA-C*14:03-restricted T cell responses to 6 putative epitope peptides. (A) Histogram plots showing surface expression of HLA-C*14:02 or HLA-C*14:03 on .221-C14:02 or .221-C14:03 cells. The relative expression level of HLA-C*14:02 versus HLA-C*14:03 [(MFI of .221-C1402 stained with DT9 − MFI of .221-C1402 stained with the second antibody)/(MFI of .221-C1403 stained with DT9 − MFI of .221-C1403 stained with the second antibody)] is 1.3. (B and C) Gag LY9-, Gag AM9-, Pol KM9-, Nef YT9-, Nef IF8-, and Nef AL9-specific bulk T cell populations were expanded by stimulating responders’ PBMCs with each peptide. The ability of these peptide-specific bulk T cells to recognize peptide-pulsed .221 cells expressing HLA-C*14 molecules was then analyzed by ICS assay. (B) T cell recognition of .221 cells expressing the patient’s autologous HLA-C*14 allele and non-HLA-C*14-expressing cells pulsed with 1 μM peptide. (C) T cell recognition of HLA-C*14:02 or HLA-C*14:03-expressing cells pulsed with the indicated peptides at concentrations from 0.01 to 10 nM was analyzed by an ICS assay. The results are means and SDs from triplicate assays.
as §1

Row | Sequence | activation of peptide-specific T cells by NL4-3-infected .221-C1402 and .221-C1403 cells [1] | recognition of peptide-pulsed .221 cells by peptide-specific bulk T cells [2]
1 | YFPDWQNYT [Nef YT9] | Strong functional activation | recognized the epitope peptide-pulsed .221 cells expressing their autologous HLA-C*14 allele
2 | LYNTIAVLY [Gag LY9] | Strong functional activation | recognized the epitope peptide-pulsed .221 cells expressing their autologous HLA-C*14 allele
3 | IYHTQGYF [Nef IF8] | Strong functional activation | recognized the epitope peptide-pulsed .221 cells expressing their autologous HLA-C*14 allele
4 | KYHSNWRAM [Pol KM9] | Strong functional activation | recognized the epitope peptide-pulsed .221 cells expressing their autologous HLA-C*14 allele
5 | AFHHVAREL [Nef AL9] | Strong functional activation | recognized the epitope peptide-pulsed .221 cells expressing their autologous HLA-C*14 allele
6 | AFSPEVIPM [Gag AM9] | Strong functional activation | recognized the epitope peptide-pulsed .221 cells expressing their autologous HLA-C*14 allele
